According to patent US9629828B2, “Methods of treating traveler's diarrhea and hepatic encephalopathy” (priority 2008, dated 2017):

Legend:
patients with HE [1] = assay type: in vivo, human
From the text: Total number of hospitalizations, duration of hospitalizations, HE endpoints, and cost of therapy were compared between the 2 treatment regimens.

[2] = test system: liver transplant patients who presented with HE; test: Chart review of 39 liver transplant patients with HE; assay type: in vivo, human
[3] = male, human, in vivo
patients with HE [4] = settings: rifaximin 1200 mg/day, neomycin 3 g/day; cited from earlier work

In the case of `OC[C@H]1O[C@@H](O[C@@H]2[C@@H](CO)OC(O)(CO)[C@H]2O)[C@H](O)[C@@H](O)[C@H]1O` (mixture of isomers) [lactulose], the “patients with Conn scores of 3 or 4” value (patients with HE [1]; end of treatment period) is reported as 25%, the days hospitalized (patients with HE [1]; human, in vivo) is reported as 7.3 days and the “patients with asterixis at end of treatment period” value (patients with HE [1]; human, in vivo) is reported as 93%. For the same compound, the “patients with diarrhea, flatulence, and abdominal pain” value (patients with HE [1]; human, in vivo) was “significantly more patients”, the hospitalizations (patients with HE [1]; rifaximin 400 mg 3 times/day, lactulose 30 mL twice daily) was 1.6 and the hospitalizations reported ([2]; 15 rifaximin, 24 lactulose patients) was “Nineteen”. The “average length of stay” value ([2]; human, in vivo) was 5.0 days.
With `CO[C@H]1/C=C/O[C@@]2(C)Oc3c(C)c(O)c4c(O)c(c5c(nc6cc(C)ccn65)c4c3C2=O)NC(=O)/C(C)=C\C=C\[C@H](C)[C@H](O)[C@@H](C)[C@@H](O)[C@@H](C)[C@H](OC(C)=O)[C@@H]1C` [14C-Rifaximin] the “amount of radioactivity in urine (bound)” value [3] was < 0.4 % of the dose.
In the case of neomycin, the “efficacy in patients with HE” value (patients with HE [4]) is given as “comparable efficacy”.
